Data published in US8119636B2, “Pyrrolopyrazine kinase inhibitors” (Roche Palo Alto LLC, priority 2008, dated 2012).

| Compound | melting point [°C] |
| --- | --- |
| CC(C)CC(=O)c1c[nH]c2ncc(Br)nc12 [Compound I-1, 1-(2-Bromo-5H-pyrrolo[2,3-b]pyrazin-7-yl)-3-methyl-butan-1-one] | 183 to 187.5 |
| CC(C)NC(=O)c1c[nH]c2ncc(Cl)nc12 [Compound I-3, 2-Chloro-5H-pyrrolo[2,3-b]pyrazine-7-carboxylic acid isopropylamide] | 278 to 279 |
| CC(C)(C)C(=O)c1c[nH]c2ncc(Cl)nc12 [Compound I-6, 1-(2-Chloro-5H-pyrrolo[2,3-b]pyrazin-7-yl)-2,2-dimethyl-propan-1-one] | 209 to 210 |
| CC1(C(=O)c2c[nH]c3ncc(Br)nc23)CCCCC1 [Compound I-7, (2-Bromo-5H-pyrrolo[2,3-b]pyrazin-7-yl)-(1-methyl-cyclohexyl)-methanone] | 198 to 199 |
| CC(C)(C)C(=O)c1c[nH]c2ncc(Br)nc12 [Compound I-8, 1-(2-Bromo-5H-pyrrolo[2,3-b]pyrazin-7-yl)-2,2-dimethyl-propan-1-one] | 213 to 214 |
| C#Cc1cnc2[nH]cc(C(=O)C(C)(C)C)c2n1 [Compound I-11, 1-(2-Ethynyl-5H-pyrrolo[2,3-b]pyrazin-7-yl)-2,2-dimethyl-propan-1-one] | 229 to 231 |

Other lines, results leading:

| melting point [°C] | Compound |
| --- | --- |
| 215 to 216 | CCc1cnc2[nH]cc(C(=O)C(C)(C)C)c2n1 [Compound I-12, 1-(2-Ethyl-5H-pyrrolo[2,3-b]pyrazin-7-yl)-2,2-dimethyl-propan-1-one] |
| 148 to 150 | CC(C)C(O)c1cnc2[nH]cc(C(=O)C(C)(C)C)c2n1 (stereo not shown) [Compound I-15, 1-[2-(1-Hydroxy-2-methyl-propyl)-5H-pyrrolo[2,3-b]pyrazin-7-yl]-2,2-dimethyl-propan-1-one] |
| 181 to 183 | Cc1ccccc1C(O)c1cnc2[nH]cc(C(=O)C(C)(C)C)c2n1 (stereo not shown) [Compound I-16, 1-[2-(Hydroxy-o-tolyl-methyl)-5H-pyrrolo[2,3-b]pyrazin-7-yl]-2,2-dimethyl-propan-1-one] |
| 168 to 170 | CC(C)(C)C(=O)c1c[nH]c2ncc(C(O)c3ccccc3)nc12 (stereo not shown) [Compound I-17, 1-[2-(Hydroxy-phenyl-methyl)-5H-pyrrolo[2,3-b]pyrazin-7-yl]-2,2-dimethyl-propan-1-one] |
| 189.1 to 194.9 | CC(C)(C)C(=O)c1c[nH]c2ncc(C(O)c3ccncc3)nc12 (stereo not shown) [Compound I-18, 1-[2-(Hydroxy-pyridin-4-yl-methyl)-5H-pyrrolo[2,3-b]pyrazin-7-yl]-2,2-dimethyl-propan-1-one] |
| 192 to 194 | CC(C)(C)C(=O)c1c[nH]c2ncc(C(O)c3cccnc3)nc12 (stereo not shown) [Compound I-19, 1-[2-(Hydroxy-pyridin-3-yl-methyl)-5H-pyrrolo[2,3-b]pyrazin-7-yl]-2,2-dimethyl-propan-1-one] |
| 197.7 to 198.2 | CC1(C(=O)c2c[nH]c3ncc(Br)nc23)CCCCCC1 [Compound I-24, (2-Bromo-5H-pyrrolo[2,3-b]pyrazin-7-yl)-(1-methyl-cycloheptyl)-methanone] |
